Reference: patent US12616684B2, “Pulmonary fibrosis medicine containing pyrazole derivative” (priority 2020, dated 2026)
Where a name gives a salt, the structure may show the parent alone. Read-outs that look alike come from different tables or passages of the source.

Tests used:
[1] = test system: C57BL/6J mice with bleomycin-induced pulmonary fibrosis; experiment: Mouse model with bleomycin-induced pulmonary fibrosis; type: in vivo; settings: for improved (modified) Ashcroft score: oral once a day for 28 days, Compound 1 60 mg/kg, nintedanib 100 mg/kg, BLM group 5.5±0.8, mean and standard deviation, FIG. 9
Procedure: For the mouse model with bleomycin-induced pulmonary fibrosis, C57BL/6J male mice aged 5 weeks and before and after body weight of 20 g were used. C57BL/6J mice were anesthetized by intraperitoneally injection of pentobarbital (40 mg/kg), the skin of the anterior neck or midline was incised, the trachea was exposed with a self-retaining retractor, and then a micro syringe was inserted from the occipital side to the lungs to slowly administer bleomycin (2 mg/kg) while checking the state of respiration. Immediately after injection, the skin of the incised anterior neck or midline was sutured, and then they were bred in a sterile animal room at constant temperature (22-26° C.) and constant humidity (55-60%). By this method, remarkable fibrosis occurred in the lungs, usually after 3 weeks of treatment. Experimental animals were 7 animals in each group, and the experiment was conducted by dividing them into the following groups: a control group (Control) orally administered with distilled water, a group (BLM) with bleomycin-induced pulmonary fibrosis, an experimental group as a positive control group (BLM+Nintedanib) orally administered with 100 mg/kg of nintedanib daily 3 weeks after administration of bleomycin, and an experimental group (BLM+Compound 1) orally administered with 60 mg/kg of Compound 1 daily 3 weeks after administration of bleomycin. Nintedanib and Compound 1 were orally administered once a day for 28 days. On the day after the last administration of nintedanib or compound 1, each animal was anesthetized, and then was bled by cardiac puncture and sacrificed. Lung tissues were enucleated from all animals for histopathological examination. The enucleated lung tissue was fixed in 10% neutral buffered formalin (NBF). The fixed lung tissue was embedded in paraffin and sliced to a thickness of 4 μm to prepare a tissue slide. The tissue slides were subjected to hematoxylin & eosin (H&E) staining, which is cell staining, and Masson's trichrome (MT) staining to confirm fibrosis. Histopathological examination of the prepared tissue slides was confirmed using an optical microscope (Carl Zeiss, Oberkochen, Germany). The severity of fibrosis was assessed using the modified Ashcroft scale, which is a semi-quantitative histopathological scoring. For immunohistochemical staining, the tissue slides prepared above were de-paraffinized, and then rabbit anti-α-smooth muscle actin (SMA) antibody or rabbit anti-collagen type I antibody was used as a primary antibody. And, Vectastatin ABC kit (Vector Laboratories, Inc, Burlingame, CA) was used to confirm the expression of the antigen reacted with each antibody. […] When reading the staining result, if the cytoplasm is colored reddish-brown in whole or in part, it is considered that there is an immune reaction, and thus, it is read as positive. From the experimental results, the mean and standard deviation were obtained using the SPSS ver. 22.0 statistical program (SPSS Inc., Chicago, IL, USA), and the significance of the difference between the experimental groups was verified at p<0.05 level by the student t-test.

[2] = test system: normal human lung fibroblasts (NHLFs); experiment: PMA stimulation-induced reactive oxygen species generation in normal human lung fibroblasts; type: cell-based; settings: FIG. 1
Description: In order to confirm the effect of the compounds of the synthetic examples on the generation of reactive oxygen species from lung fibroblasts, the generation of reactive oxygen species was induced through PMA stimulation in normal human lung fibroblasts (NHLFs, Lonza), and the inhibitory effect of Compound 1 on the generation of reactive oxygen species was observed under this condition. Each cell was suspended in a culture medium containing 10% FBS, seeded in a 96-well plate, and cultured for 24 hours under conditions of 5% CO2 and 37° C. After pre-treating Compound 1 for 30 minutes to 1 hour, TGF-β1 or phorbol 12-myristate 13-acetate (PMA) stimulation was applied to each well including cells and drugs.

IL-1β = experiment: LPS-induced IL-1β expression in normal human lung fibroblasts, RT-PCR; type: cell-based; settings: NHLFs, pre-treated 30 minutes, LPS 6 hours, FIG. 4
[3] = test system: normal human lung fibroblasts (NHLFs); experiment: TGF-β1-induced αSMA and collagen type I expression (myofibroblast differentiation), immunocytochemistry; type: cell-based; settings: 10 ng/ml TGF-β1 72 hours, 2 mM Compound 1 pre-treated 1 hour
Procedure: In order to analyze the effect of Compound 1 on the differentiation of lung fibroblasts into myofibroblasts, the inhibitory effect of Compound 1 on the increase in the expression of TGF-β1-induced α-smooth muscle actin (αSMA) and collagen type I (collagen I) in normal human lung fibroblasts (NHLFs, Lonza) was observed. NHLF cells were suspended in culture medium (FGM-2 Bulletkit media, Lonza) and inoculated at a concentration of 1×10^4 cells/well on a 4-well chamber slide (Nunc). After 24 hours of culture in a CO2 incubator, the medium was replaced with a serum-free medium and further cultured for 12 hours. Thereafter, vehicle and 2 mM Compound 1 were pre-treated in the corresponding wells for 1 hour, and then 10 ng/ml of TGF-β1 was treated in each well except for the negative control (vehicle group) for 72 hours. Confirmation of the expression of αSMA and collagen I in the prepared cells was performed through immunocytochemistry as follows. Cells were fixed in 4% paraformaldehyde for 10 minutes and permeated using 0.1% Triton X-100, and primary antibody (anti-αSMA Ab, 1:200; anti-collagen I Ab, 1:500, reacted for 3 hours at room temperature) and secondary antibody (ALEXA™-594 conjugated Ab, 1:1000, reacted for 1 hour at room temperature) treatment process was sequentially performed, and then the expression of αSMA and collagen I was observed using a fluorescence microscope. […]

[4] = test system: severe acute respiratory syndrome coronavirus 2 (SARS-CoV2); experiment: Antiviral activity against SARS-CoV2 in Calu-3 cells, real-time qRT-PCR; type: cell-based; settings: for IC50: Severe acute respiratory syndrome coronavirus 2, SARS-CoV2 in Calu-3 cells, read-out: IC50 (50% inhibition concentration), antiviral efficacy
[5] = Toxicity to Calu-3 human lung epithelial cells; type: cell-based; settings: Calu-3 cells, read-out: CC50 (50% cytotoxic concentration)
Procedure: In order to analyze the antiviral activity of the compounds of the synthetic examples, real-time qRT-PCR (quantitative RT-PCR) was perfumed using severe acute respiratory syndrome coronavirus 2 (SARS-CoV2) and Calu-3 cells, which are human lung epithelial cells. Human lung epithelial cells (Calu-3) were cultured in Dulbecco's Modified Eagle Medium (DMEM) at 37° C. under 5% CO2. The concentration of Compound 1 was 15, 12.5, 6.25, 3.125, 1.563, 0.781, 0.391, 0.195, 0.098, 0.049, 0.024, 0.012 μM. Antiviral efficacy (IC50; 50% inhibition concentration) and toxicity to the cells (CC50; 50% cytotoxic concentration) according to drug concentration were measured at 24 hours and 48 hours after treatment on the cells by concentration, and are shown in Table 1 and FIG. 10.

[6] = 60 mg/kg oral once a day for 28 days, FIG. 5

Compound	deformation of the lung structure (H&E staining) [1, 6]	hypertrophic epithelial cells (H&E staining) [1, 6]	site of abnormal tissue deposition (H&E staining) [1, 6]	degree of infiltration of inflammatory cells into the alveolus and bronchiole (H&E staining) ([1]; 60 mg/kg oral once a day for 28 days, compared with BLM and BLM+Nintedanib groups, FIG. 5)	size of the fibrosis area and deposition of collagen due to fibrosis (Masson's trichrome staining) ([1]; 60 mg/kg oral once a day for 28 days, compared with BLM and BLM+Nintedanib groups, FIG. 6)	expression of α-SMA in lung tissue (immunohistochemical staining) ([1]; 60 mg/kg oral once a day for 28 days, compared with BLM and BLM+Nintedanib groups, FIG. 7)	expression of collagen type I (collagen I) in lung tissue (immunohistochemical staining) ([1]; 60 mg/kg oral once a day for 28 days, compared with BLM and BLM+Nintedanib groups, FIG. 8)	improved (modified) Ashcroft score [1]	generation of PMA stimulation-induced reactive oxygen species [2]	LPS-induced IL-1β expression (IL-1β)	increase in the expression of αSMA ([3]; FIG. 2)	increase in the expression of collagen I ([3]; FIG. 3)	SI ([4]; CC50/IC50, 24 hours)	SI ([4]; CC50/IC50, 48 hours)	IC50 ([4]; 24 hours after treatment) [µM]	IC50 ([4]; 48 hours after treatment) [µM]	CC50 at 24 h ([5]; 24 hours after treatment) [µM]	CC50 at 48 h ([5]; 48 hours after treatment) [µM]
CCCc1c(-c2ccccc2)nn(-c2ccccn2)c1O [Compound 1, 3-phenyl-4-propyl-1-(pyridin-2-yl)-1H-pyrazol-5-ol hydrochloride]	reduced	decreased	reduced	significantly lower than that of the experimental group and the positive control group	remarkably reduced	reduced	remarkably reduced	4.0±1.1	inhibited in a concentration-dependent manner	effectively inhibited in a concentration-dependent manner	remarkably inhibited	remarkably inhibited	13.80	98.50	31.5	1.67	435	164
COC(=O)c1ccc2c(c1)NC(=O)/C2=C(\Nc1ccc(N(C)C(=O)CN2CCN(C)CC2)cc1)c1ccccc1 [nintedanib, reference compound]	–	–	–	–	–	–	–	5.2±0.45	–	–	–	–	–	–	–	–	–	–
